The results in this text go back to a melting point compilation (Tetko et al.; mined from patent text by program, amines drawn as free bases though some values may be those of a salt).

For orientation: melting point means the temperature of the solid-liquid transition. `CNC(=O)Oc1ccc2c(ccn2Cc2ccncc2)c1`: the melting point was 170 °C.

`Cc1cc(SCc2cccc3nn(-c4ccc(C(F)(F)F)cc4)cc23)ccc1OC(C)(C)C(=O)O` returned a melting point of 125 to 127 °C.

For `Cc1nc(N)nc(N)c1N1CCN(c2ccc(C(=O)NCC(=O)O)cc2)CC1`, the melting point is over 310 °C.

As to `COc1cc(COc2nn(C)cc2C=O)ccc1OCc1nc(-c2ccco2)oc1C`, the melting point was in the range of 155 to 156 °C.

In turn, `CC(CO)(Sc1cc2cc(O)ccc2[nH]1)c1ccccc1` (stereo not given) registered a melting point of 143 to 145 °C.

Consider `Nn1cnc2ccccc2c1=O`, for which the melting point was in the range of 209 to 210 °C.

In turn, `CC(C)(CNc1c(C(N)=O)cnn2cccc12)N1CCOCC1` showed a melting point of 179 °C.

On to `OCc1cc(-c2ccc(C(F)(F)F)cc2)on1`, for which the melting point was in the range of 111 to 113 °C.

The compound `Cc1cc(N2CCN(CC(=O)c3ccccc3)C2=O)sc1C(=O)NCc1cccnc1` came in with a melting point of 174 to 176 °C.

In turn, `C=C(c1ccc(OC)cc1)c1cc(C(=C)c2ccc(OC)cc2)cc(C(=C)c2ccc(OC)cc2)c1` came in with a melting point of 116 to 118 °C.

`COc1cc2ncc(C#N)c(Nc3cccc(C(=O)O)c3C)c2cc1OC` yielded a melting point of 242 to 245 °C.

In turn, `Cc1ccc(S(=O)(=O)NC(=O)NCCCCCCNC(=O)NS(=O)(=O)c2ccc(C)o2)o1` had a melting point of 115 to 116 °C.

Compound `Cc1cc(C)c(NC(=O)Nc2c(-c3ccccc3Cl)c3ccncc3n(C)c2=O)c(C)c1` displayed a melting point of 222 to 224 °C.

On to `O=C(COCc1ccccc1)NC(C(=O)O)c1ccccc1` (stereo not given), for which the melting point lay in the range of 127 to 130 °C.

For `COC(=O)CC1CC(c2cccc(C3(c4ccc(OC(F)F)cc4)N=C(N)N(C)C3=O)c2)C1` (stereo not given), the melting point fell in the range of 68 to 70 °C.

In the case of `CN1CCCC(c2nc(-c3ccncc3)c(-c3ccc(F)cc3)[nH]2)C1` (stereo not given), the melting point was 195 to 197 °C.

Compound `c1ccc(CCc2n[nH]c(NCCCCOc3cccc(CN4CCCCC4)c3)n2)cc1` yielded a melting point of 146 to 147 °C.

With `O=[N+]([O-])c1ccc(-n2nnnc2Cl)cc1`, the melting point was 96.5 °C.

Regarding `NNC(=O)N(O)C1c2ccccc2Oc2ccccc21`, the melting point came to 186 °C.

Regarding `CC1(C)Oc2ccc(C#N)cc2[C@@H](N2CCN(C(=O)c3ccco3)CC2=O)[C@@H]1O` (relative stereo), the melting point lay in the range of 226 to 229 °C.

`CCCc1ccc(-c2ncc(C#N)c(Cl)n2)cc1` came in with a melting point of 109 to 110 °C.

Compound `CC(=O)N(C)C1(c2ccccc2)CCN(Cc2ccccc2)CC1` had a melting point of 104 °C.

Consider `COc1cc(CC(=O)Nc2cnn(Cc3c(C)noc3C)c2)cc(OC)c1O`, for which the melting point lay within 187 to 188 °C.

In turn, `CN(CC(=O)O)S(=O)(=O)c1csc2ccccc12` came in with a melting point of 139 to 140 °C.

Turning to `COc1cc2c(sc3nc(C)c(CO)n32)c(OC)c1OC`, the melting point was 196 °C.

As to `CCCCCCCCCCCCCCCCCCOS(=O)(=O)NC(=O)Nc1c(C(C)C)cccc1C(C)C`, the melting point fell in the range of 95 to 98 °C.

As for `COc1ccc2ccc(N3C(=O)c4ccccc4C3NCCCN(C)C)nc2n1` (stereo not given), the melting point is 128 °C.

Compound `COc1ccc(C(=O)Cc2ccncc2)c2c1OCC2C` (stereo not given) gave a melting point of 111 to 117 °C.

As to `CCOC(=O)CSC1=CCC2C3CCC4=CC(=O)C=CC4(C)C3(F)C(O)CC12C` (stereo not given), the melting point is 144 to 145 °C.

`Cc1nn(C)c(Cl)c1C(=O)Nc1ccccc1` gave a melting point of 157 to 159 °C.

On to `Cc1c(C(=O)N(C)Cc2ccc3c(Br)c(OCc4nnn[nH]4)ccc3c2)oc2ccccc12`, for which the melting point lay in the range of 164 to 166 °C.

`COc1ccc(C(=O)c2c(-c3ccccc3)sc3cc(OC)ccc23)cc1` yielded a melting point of 132 °C.

Compound `O=Cc1cnc(Oc2ccccc2)s1` gave a melting point of 50 °C.

`Oc1ccc2oc(-c3ccc(O)c4ccccc34)nc2c1` had a melting point of 182 to 184 °C.

Regarding `O=C1CCc2cccc3c2N1C(=O)CC3`, the melting point is 136 to 140 °C.
